Measurements reported in patent publication US10201546B2, “Quinolinyl modulators of RORγt” (Janssen Pharmaceutica NV, priority 2013, dated 2019).

Biological target: human RORγt ligand binding domain (RORγt LBD) (Homo sapiens (Human), UniProt P51449)
Assay: RORγt ThermoFluor assay (thermal shift, binding affinity Kd)
Settings: ThermoFluor Assay, Kd

human RORγt ligand binding domain (RORγt LBD), sequence (P51449 other isoform, or with tags, fused parts or gaps): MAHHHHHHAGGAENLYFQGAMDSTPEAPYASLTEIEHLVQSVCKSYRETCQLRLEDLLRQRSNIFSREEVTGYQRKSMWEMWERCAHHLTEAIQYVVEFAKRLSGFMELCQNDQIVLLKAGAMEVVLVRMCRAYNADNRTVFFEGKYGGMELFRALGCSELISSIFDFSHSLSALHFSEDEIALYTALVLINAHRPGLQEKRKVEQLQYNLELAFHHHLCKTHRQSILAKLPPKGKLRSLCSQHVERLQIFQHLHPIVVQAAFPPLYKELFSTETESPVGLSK

SMILES	Kd [µM]
COc1nc2ccc(C(O)(c3ccc(C)nc3C)c3cnnn3C)cc2c(Cl)c1CC1CCS(=O)(=O)CC1 (single isomer, unassigned) [Example 2c, 4-((4-Chloro-6-((2,6-dimethylpyridin-3-yl)(hydroxy)(1-methyl-1H-1,2,3-triazol-5-yl)methyl)-2-methoxyquinolin-3-yl)methyl)tetrahydro-2H-thiopyran 1,1-dioxide]	0.11

Same assay, conditions: read-out: ThermoFluor Assay, Kd

SMILES	Kd [µM]
COc1nc2ccc(C(O)(c3cnc(C)n3C)c3cnc(C)n3C)cc2c(Cl)c1OC1CCCN(C)C1 (single isomer, unassigned) [Example 51b, (4-Chloro-2-methoxy-3-{[1-methylpiperidin-3-yl]oxy}quinolin-6-yl)[bis(1,2-dimethyl-1H-imidazol-5-yl)]methanol]	3
COc1nc2ccc(C(O)(c3cnc(C)n3C)c3cnc(C)n3C)cc2c(Cl)c1OCC1CCCN1C (stereo not shown) [Example 52, {4-Chloro-2-methoxy-3-[(1-methylpyrrolidin-2-yl)methoxy]quinolin-6-yl}[bis(1,2-dimethyl-1H-imidazol-5-yl)]methanol]	2.9
COc1nc2ccc(C(O)(c3ccc(C)nc3C)c3cnnn3C)cc2c(Cl)c1C(=O)N1CCC(C(F)(F)F)CC1 (stereo not shown) [Example 83, (4-Chloro-2-methoxy-3-{[4-(trifluoromethyl)piperidin-1-yl]carbonyl}quinolin-6-yl)(2,6-dimethylpyridin-3-yl)(1-methyl-1H-1,2,3-triazol-5-yl)methanol]	0.36

Same assay, conditions: read-out: ThermoFluor ® Assay, Kd

SMILES	Kd [µM]
COc1nc2ccc(C(O)(c3ccc(C(F)(F)F)nc3)c3cncn3C)cc2c(C#N)c1CN1CCC(C(F)(F)F)CC1 (single isomer, unassigned) [Example 191b, 6-(Hydroxy(1-methyl-1H-imidazol-5-yl)(6-(trifluoromethyl)pyridin-3-yl)methyl)-2-methoxy-3-((4-(trifluoromethyl)piperidin-1-yl)methyl)quinoline-4-carbonitrile]	0.098
COc1nc2ccc(C(O)(c3ccc(C(F)(F)F)nc3)c3cncn3C)cc2c(C#N)c1CN1CCC(C(F)(F)F)CC1 (single isomer, unassigned) [Example 191c, 6-(Hydroxy(1-methyl-1H-imidazol-5-yl)(6-(trifluoromethyl)pyridin-3-yl)methyl)-2-methoxy-3-((4-(trifluoromethyl)piperidin-1-yl)methyl)quinoline-4-carbonitrile]	0.0031
COc1nc2ccc(C(O)(c3ccc(C)nc3C)c3cnnn3C)cc2c(Cl)c1C(=O)NCC1CC1 (stereo not shown) [Example 147, 4-Chloro-N-(cyclopropylmethyl)-6-[(2,6-dimethylpyridin-3-yl)(hydroxy)(1-methyl-1H-1,2,3-triazol-5-yl)methyl]-2-methoxyquinoline-3-carboxamide]	0.93
COc1nc2ccc(C(O)(c3ccc(C)nc3C)c3cnnn3C)cc2c(Cl)c1C(=O)N(C)C (stereo not shown) [Example 148, 4-Chloro-6-[(2,6-dimethylpyridin-3-yl)(hydroxy)(1-methyl-1H-1,2,3-triazol-5-yl)methyl]-2-methoxy-N,N-dimethylquinoline-3-carboxamide]	1.7
COc1nc2ccc(C(O)(c3ccc(C)nc3C)c3cnnn3C)cc2c(Cl)c1C(=O)N1CCCC1 (stereo not shown) [Example 151, [4-Chloro-2-methoxy-3-(pyrrolidin-1-ylcarbonyl)quinolin-6-yl](2,6-dimethylpyridin-3-yl)(1-methyl-1H-1,2,3-triazol-5-yl)methanol]	5.1
COc1nc2ccc(C(O)(c3ccc(C)nc3C)c3cnnn3C)cc2c(Cl)c1C(=O)NCC(F)(F)F (stereo not shown) [Example 152, 4-Chloro-6-[(2,6-dimethylpyridin-3-yl)(hydroxy)(1-methyl-1H-1,2,3-triazol-5-yl)methyl]-2-methoxy-N-(2,2,2-trifluoroethyl)quinoline-3-carboxamide]	0.6
COc1nc2ccc(C(O)(c3ccc(C)nc3C)c3cnnn3C)cc2c(Cl)c1C(=O)N1CC(F)(F)C1 (stereo not shown) [Example 153, {4-Chloro-3-[(3,3-difluoroazetidin-1-yl)carbonyl]-2-methoxyquinolin-6-yl}(2,6-dimethylpyridin-3-yl)(1-methyl-1H-1,2,3-triazol-5-yl)methanol]	3
COc1nc2ccc(C(O)(c3cnc(C)n3C)c3cnc(C)n3C)cc2c(Cl)c1CNC(=O)CC(F)(F)F [Example 185, N-((6-(Bis(1,2-dimethyl-1H-imidazol-5-yl)(hydroxy)methyl)-4-chloro-2-methoxyquinolin-3-yl)methyl)-3,3,3-trifluoropropanamide]	0.77

Biological target: human RORγt LBD fused to the DNA binding domain of the GAL4 protein (Homo sapiens (Human), UniProt P51449)
Assay: RORγt (LBD) reporter assay in HEK293T cells
Type: cell-based
Design: RORγt (LBD) Reporter Assay, % inhibition: dose or concentration left out as unconfirmed
Settings: not given

human RORγt LBD fused to the DNA binding domain of the GAL4 protein, sequence (P51449 258-518): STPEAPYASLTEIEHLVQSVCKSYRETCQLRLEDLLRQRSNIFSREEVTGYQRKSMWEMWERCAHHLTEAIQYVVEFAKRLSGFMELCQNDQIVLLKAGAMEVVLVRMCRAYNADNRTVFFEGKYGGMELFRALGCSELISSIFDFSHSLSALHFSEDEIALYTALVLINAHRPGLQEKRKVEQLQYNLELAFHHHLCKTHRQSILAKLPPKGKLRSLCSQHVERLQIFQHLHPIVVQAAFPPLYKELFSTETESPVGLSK

SMILES	RORγt (LBD) Reporter Assay, % inhibition [%]
COc1nc2ccc(C(O)(c3ccc(C)nc3C)c3cnnn3C)cc2c(Cl)c1CC(C)C (single isomer, unassigned) [Example 133b, (4-Chloro-3-isobutyl-2-methoxyquinolin-6-yl)(2,6-dimethylpyridin-3-yl)(1-methyl-1H-1,2,3-triazol-5-yl)methanol]	90
COc1nc2ccc(C(O)(c3ccc(C)nc3C)c3cnnn3C)cc2c(Cl)c1CC(C)C (single isomer, unassigned) [Example 133c, (4-Chloro-3-isobutyl-2-methoxyquinolin-6-yl)(2,6-dimethylpyridin-3-yl)(1-methyl-1H-1,2,3-triazol-5-yl)methanol]	98
COc1nc2ccc(C(O)(c3ccc(C)nc3C)c3cnnn3C)cc2c(Cl)c1C1CCCC1 (single isomer, unassigned) [Example 136b, (4-Chloro-3-cyclopentyl-2-methoxyquinolin-6-yl)(2,6-dimethylpyridin-3-yl)(1-methyl-1H-1,2,3-triazol-5-yl)methanol]	76
COc1nc2ccc(C(O)(c3ccc(C)nc3C)c3cnnn3C)cc2c(Cl)c1C1CCCC1 (single isomer, unassigned) [Example 136c, (4-Chloro-3-cyclopentyl-2-methoxyquinolin-6-yl)(2,6-dimethylpyridin-3-yl)(1-methyl-1H-1,2,3-triazol-5-yl)methanol]	98
COc1nc2ccc(C(O)(c3ccc(C)nc3C)c3cnnn3C)cc2c(Cl)c1CC(F)(F)F (single isomer, unassigned) [Example 143b, [4-Chloro-2-methoxy-3-(2,2,2-trifluoroethyl)quinolin-6-yl](2,6-dimethylpyridin-3-yl)(1-methyl-1H-1,2,3-triazol-5-yl)methanol]	77
COc1nc2ccc(C(O)(c3ccc(C)nc3C)c3cnnn3C)cc2c(Cl)c1CC(C)C (stereo not shown) [Example 133a, (4-Chloro-3-isobutyl-2-methoxyquinolin-6-yl)(2,6-dimethylpyridin-3-yl)(1-methyl-1H-1,2,3-triazol-5-yl)methanol]	98
COc1nc2ccc(C(O)(c3ccc(C)nc3C)c3cnnn3C)cc2c(Cl)c1C1CCCC1 (stereo not shown) [Example 136a, (4-Chloro-3-cyclopentyl-2-methoxyquinolin-6-yl)(2,6-dimethylpyridin-3-yl)(1-methyl-1H-1,2,3-triazol-5-yl)methanol]	97

Same assay, conditions: HEK-293T, read-out: RORγt (LBD) Reporter Assay, % inhibition @ 6 μM, @ 6 μM

SMILES	inhibition at 6 µM [%]
COc1nc2ccc(C(O)(c3cncn3C)C3CCN(C(C)=O)CC3)cc2c(Cl)c1CC1CCOCC1 (stereo not shown) [Example 5a, 1-(4-((4-Chloro-2-methoxy-3-((tetrahydro-2H-pyran-4-yl)methyl)quinolin-6-yl)(hydroxy)(1-methyl-1H-imidazol-5-yl)methyl)piperidin-1-yl)ethanone]	45
COc1nc2ccc(C(O)(c3ccc(C)nc3C)c3cnnn3C)cc2c(Cl)c1C (stereo not shown) [Example 12a, (4-Chloro-2-methoxy-3-methylquinolin-6-yl)(2,6-dimethylpyridin-3-yl)(1-methyl-1H-1,2,3-triazol-5-yl)methanol]	93
COc1nc2ccc(C(O)(c3ccc(C)nc3C)c3cnnn3C)cc2c(Cl)c1CC1CC1 (stereo not shown) [Example 14a, (4-Chloro-3-(cyclopropylmethyl)-2-methoxyquinolin-6-yl)(2,6-dimethylpyridin-3-yl)(1-methyl-1H-1,2,3-triazol-5-yl)methanol]	99
COc1nc2ccc(C(O)(c3ccc(C)nc3C)c3cnnn3C)cc2c(Cl)c1OCc1ncccn1 (stereo not shown) [Example 66a, [4-Chloro-2-methoxy-3-(pyrimidin-2-ylmethoxy)quinolin-6-yl](2,6-dimethylpyridin-3-yl)(1-methyl-1H-1,2,3-triazol-5-yl)methanol]	-112
COc1nc2ccc(C(O)(c3ccc(C)nc3C)c3cnnn3C)cc2c(Cl)c1OCC1CC1 (stereo not shown) [Example 68a, [4-Chloro-3-(cyclopropylmethoxy)-2-methoxyquinolin-6-yl](2,6-dimethylpyridin-3-yl)(1-methyl-1H-1,2,3-triazol-5-yl)methanol]	83
COc1nc2ccc(C(O)(c3ccc(C)nc3C)c3cnnn3C)cc2c(Cl)c1OC1CCOCC1 (stereo not shown) [Example 69a, [4-Chloro-2-methoxy-3-(tetrahydro-2H-pyran-4-yloxy)quinolin-6-yl](2,6-dimethylpyridin-3-yl)(1-methyl-1H-1,2,3-triazol-5-yl)methanol]	57
COc1nc2ccc(C(O)(c3ccc(C)nc3C)c3cnnn3C)cc2c(Cl)c1OCC1CC1(F)F (stereo not shown) [Example 72a, {4-Chloro-3-[(2,2-difluorocyclopropyl)methoxy]-2-methoxyquinolin-6-yl}(2,6-dimethylpyridin-3-yl)(1-methyl-1H-1,2,3-triazol-5-yl)methanol]	85
COc1nc2ccc(C(O)(c3ccc(C)nc3C)c3cnnn3C)cc2c(Cl)c1CN1CCC(C(F)(F)F)CC1 (stereo not shown) [Example 103a, (4-Chloro-2-methoxy-3-((4-(trifluoromethyl)piperidin-1-yl)methyl)quinolin-6-yl)(2,6-dimethylpyridin-3-yl)(1-methyl-1H-1,2,3-triazol-5-yl)methanol]	101
COc1nc2ccc(C(O)(c3ccc(C)nc3C)c3cnnn3C)cc2c(Cl)c1CN1CCC(F)(F)CC1 (stereo not shown) [Example 107a, (4-Chloro-3-((4,4-difluoropiperidin-1-yl)methyl)-2-methoxyquinolin-6-yl)(2,6-dimethylpyridin-3-yl)(1-methyl-1H-1,2,3-triazol-5-yl)methanol]	54
